Laboratory results published in US20220233471A1, “PRODRUG COMPOSITIONS AND METHODS OF TREATMENT” (AQUESTIVE THERAPEUTICS, INC., priority 2021, published 2022).
“Also recorded” adds a separate entry of the source.

How the values were obtained:
[1] = pharmacokinetics of epinephrine in Beagle dogs after bolus inhalation of prodrugs or IM EpiPen; type: in vivo; settings: inhalation 0.4 vs 0.2 mg/kg (target 2×)
[2] = esterase hydrolysis assay in human BAL fluid (prodrug stability); type: in vitro ADME; settings: Human BAL fluid from 2 subjects; 1 μM; stabilizer sodium metabisulfite 8.9 mM; LC-MS
Protocol: Epinephrine prodrugs were evaluated. In vitro inhalation models were employed.
Hydrolysis of dipivefrin or AQEP-09 was studied in vitro in Human BAL fluid by measuring the epinephrine concentration. Frozen BAL fluid was used from 2 subjects. Compounds were incubated at 1 μM in the presence of a stabilizer (sodium metabisulfite, 8.9 mM). Samples were removed after stopping the enzyme reaction using NaF or SigmaFast at different timepoints. Samples were extracted and analyzed by LC-MS method. […] Less than 5% hydrolysis was observed.

[3] = particle size distribution of jet-milled (micronized) prodrugs; type: physicochemical; settings: feed rate 840 g/hr
Protocol: Both dipivefrin and Diisobutyryl L-epinephrine were micronized using the jet milling process using nitrogen. The effect of pressure and feed rates were determined. The particle sizes of the micronized material are shown in the Table 1 and micronized/milled material suitable for drug powder inhalation (2-5 μm) were manufactured.

[4] = aerodynamic particle size of exposure aerosol (Aerodynamic Particle Sizer); type: physicochemical; settings: exposure aerosol of micronized powder
Text: Mass median aerodynamic diameter (MMAD) of AQEP-09 was 1.57 μm (Geometric Standard Deviation (GSD) 1.74) and MMAD for Dipivefrin was 1.47 μm (GSD 2.63).

[5] = tested on: 3D culture model (EpiAirways, MatTek) of human lung epithelial cells
Protocol: (§1) Epinephrine prodrugs were evaluated. In vitro inhalation models were employed. In particular, an esterase hydrolysis assay was employed using human branchoalveolar lavage (BAL) fluid to examine prodrug stability. A permeability assay using in vitro a 3D culture model (EpiAirways, MatTek) of human lung epithelial cells was also performed. The 3D culture system mimics the structure of lungs, allowing for study of the hydrolysis of prodrugs in the lungs by esterases and the systemic permeability data. The EpiAirway 3D culture includes a ciliated apical surface, mucociliary epithelium and microporous membrane.
In vitro permeability of the 3D culture was studied.
The Franz diffusion cell apparatus consists of two chambers separated by a membrane. The permeation studies were conducted using the 3D lung cell culture. The tissue membrane separates the donor compartment containing the prodrug and the receptor compartment containing the collection media whish was selected to provide sink conditions throughout the experiment.
(§2) Compounds were incubated at different concentrations (5 mM, 10 mM, and 50 mM). Cell viability was assessed by LDH Cytotoxicity Detection kit (Takara # MK401) and MTT tissue viability assay kit (MatTek, # MTT-100). Receiver media were removed at different timepoints, 0.5, 1, 2, 3, 4, 6 hrs to test permeability; Samples were extracted and analyzed by an LC-MS method.
(§3) Referring to FIGS. 3C-3D Dipivefrin and AQEP-09 toxicity and permeability using human lung epithelial cells was also studied in the EpiAirway model. Compounds were incubated at different concentrations (0.1 mM, 1 mM, 2 mM) and cell viability was assessed by LDH release assay and MTT assay. See, e.g., Aysun Adan, Yağmur Kiraz and Yusuf Baran, “Cell Proliferation and Cytotoxicity Assays”, Current Pharmaceutical Biotechnology (2016) 17: 1213, which is incorporated by reference in its entirety. Receiver media were removed at different timepoints, 1, 2, 3, 4 hrs to test permeability. Samples were extracted and analyzed by LC-MS method.

[6] = tested on: human lung epithelial cells; assay: LDH cytotoxicity / release assay in EpiAirway 3D culture; type: cell-based; settings: for toxicity / cell viability in the LDH assay: 0.1 mM, 1 mM, 2 mM; for cell viability in the LDH assay: 5 mM, 10 mM, 50 mM
Protocol: as §1, §2, §3

[7] = excipient compatibility study with dry powder inhalation carriers; type: physicochemical
Protocol: Compatibility of epinephrine prodrugs Disobutyryl L-epinephrine (AQEP-09) and Dipivefrin was studied with common carriers used for dry powder inhalation applications. Lactose monohydrate, Lactose anhydrous and Mannitol were used for the stability evaluation. Mixtures of the micronized API and the carriers were tested under stability conditions, 25° C./60%RH and 40° C./75%RH.

[8] = stability in sodium metabisulfite; type: physicochemical
Text: A prodrug can present improved hydrophobicity, better permeation, dose reduction, and enhanced speed of absorption. It can also provide alternative compositions with unique stability profiles. […] A prodrug that is not absorbed in the stomach can also avoid, minimize or eliminate the side effect of epigastric pain. Moreover, a prodrug can result in reduced adrenergic receptor binding, resulting in reduced variability of vasoconstriction and more stability.

[9] = nitrogen milling pressure 1.5 bar
[10] = nitrogen milling pressure 3.5 bar
[11] = Lactose Anhydrous, 25° C./60% RH, 0 weeks
[12] = Lactose Anhydrous, 25° C./60% RH, 2 weeks
[13] = Lactose Anhydrous, 25° C./60% RH, 4 weeks
[14] = Lactose Anhydrous, 40° C./75% RH, 0 weeks
[15] = Lactose Anhydrous, 40° C./75% RH, 2 weeks
[16] = Lactose Anhydrous, 40° C./75% RH, 4 weeks
[17] = Lactose Monohydrate, 25° C./60% RH, 0 weeks
[18] = Lactose Monohydrate, 25° C./60% RH, 2 weeks
[19] = Lactose Monohydrate, 25° C./60% RH, 4 weeks
[20] = Lactose Monohydrate, 40° C./75% RH, 0 weeks
[21] = Lactose Monohydrate, 40° C./75% RH, 2 weeks
[22] = Lactose Monohydrate, 40° C./75% RH, 4 weeks
[23] = Mannitol, 25° C./60% RH, 0 weeks
[24] = Mannitol, 25° C./60% RH, 2 weeks
[25] = Mannitol, 25° C./60% RH, 4 weeks
[26] = Mannitol, 40° C./75% RH, 0 weeks
[27] = Mannitol, 40° C./75% RH, 2 weeks
[28] = Mannitol, 40° C./75% RH, 4 weeks

| hydrolysis to epinephrine [2] | Particle size d10 [3, 9] | Particle size d50 [3, 9] | Particle size d90 [3, 9] | Particle size d10 [3, 10] | Particle size d50 [3, 10] | Particle size d90 [3, 10] | GSD [4] | MMAD [4] [μm] | Assay (Percent Label Claim) [7, 11] [%] | Assay (Percent Label Claim) [7, 12] [%] | Assay (Percent Label Claim) [7, 13] [%] | Assay (Percent Label Claim) [7, 14] [%] | Assay (Percent Label Claim) [7, 15] [%] | Assay (Percent Label Claim) [7, 16] [%] | Assay (Percent Label Claim) [7, 17] [%] | Assay (Percent Label Claim) [7, 18] [%] | Assay (Percent Label Claim) [7, 19] [%] | Assay (Percent Label Claim) [7, 20] [%] | SMILES | toxicity / cell viability in the LDH assay [6] | further results |
| --- | --- | --- | --- | --- | --- | --- | --- | --- | --- | --- | --- | --- | --- | --- | --- | --- | --- | --- | --- | --- | --- |
| minimal hydrolysis | d10-10.30 μm | d50-55.70 μm | d90-132.75 μm | d10-0.46 μm | d50-1.12 μm | d90-2.37 μm | 1.74 | 1.57 | 100 | 103 | 103 | 100 | 97 | 87 | 100 | 100 | 97 | 100 | CNCC(O)c1ccc(OC(=O)C(C)C)c(OC(=O)C(C)C)c1 [AQEP-09, Diisobutyryl L-epinephrine] | did not show any toxicity; also recorded: no or less toxicity | Overall dose response [1]: slightly less than dose proportional; permeability compared to Dipivefrin [5]: lower permeability; increase in dose that shows comparable permeability to Dipivefrin ([5]; human): 50%; Assay (Percent Label Claim) [7, 21]: 94%; Assay (Percent Label Claim) [7, 22]: 83%; Assay (Percent Label Claim) [7, 23]: 100%; Assay (Percent Label Claim) [7, 24]: 96%; Assay (Percent Label Claim) [7, 25]: 96%; Assay (Percent Label Claim) [7, 26]: 100%; Assay (Percent Label Claim) [7, 27]: 95%; Assay (Percent Label Claim) [7, 28]: 84% |
| minimal hydrolysis | d10-0.91 μm | d50-6.24 μm | d90-13.18 μm | d10-0.53 μm | d50-1.27 μm | d90-2.92 μm | 2.63 | 1.47 | 100 | 100 | 96 | 100 | 99 | 95 | 100 | 101 | 96 | 100 | CNCC(O)c1ccc(OC(=O)C(C)(C)C)c(OC(=O)C(C)(C)C)c1 (stereo not drawn) [Dipivefrin] | lower cell viability | permeability in human lung model [5]: dose dependent permeability; cell viability in the LDH assay ([6]; 6 h): cell viability was reduced at all doses; cell viability in the LDH assay ([6]; 24 hr): viability was improved; stability in sodium metabisulfite [8]: unstable; Assay (Percent Label Claim) [7, 21]: 96%; Assay (Percent Label Claim) [7, 22]: 81%; Assay (Percent Label Claim) [7, 23]: 100%; Assay (Percent Label Claim) [7, 24]: 101%; Assay (Percent Label Claim) [7, 25]: 98%; Assay (Percent Label Claim) [7, 26]: 100%; Assay (Percent Label Claim) [7, 27]: 101%; Assay (Percent Label Claim) [7, 28]: 95% |
